Reference: US20230203060A1 (GENFLEET THERAPEUTICS (SHANGHAI) INC., priority 2020, published 2023)

Assays:
[1] = test system: KRAS G12C mutant MIA PaCa-2 cells; assay: Cell proliferation inhibition experiment, 3D spheroid, CellTiter-Glo, MIA PaCa-2; format: cell-based, human; conditions: Homo sapiens, MIA PaCa-2, 120 h, 3D cell model in 384-well spheroid plate, 5 days, CellTiter-Glo; read-out: MIA-PaCa2 IC50
Procedure, shortened: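 Luminescent ATP read-out (CellTiter-Glo) after 5-day compound treatment of spheroids formed overnight from 200 MIA PaCa-2 cells/well; compounds in 3.16-fold series, 0.1% DMSO final. IC50 derived by four-parameter fit of percent inhibition, normalized to DMSO control and medium blank.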

KRAS G12C = biological target: T1, KRAS G12C (Homo sapiens, UniProt P01116, G12C); assay: KRAS G12C NEA-HTRF experiment (SOS1-catalyzed displacement of GDP by GTP); format: biochemical
T1 construct: purchased Reactionbiology
Procedure, shortened: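 His-tagged KRAS G12C preloaded with DY647-GDP was preincubated 15 min at 20 °C with compound, then exchanged with SOS1 (0.2 μM working solution) and GTP (200 μM working solution) for 2 h at 20 °C in the dark. HTRF 665/615 nm ratio with anti-His-Tb was normalised to T0 and no-compound controls; IC50 by four-parameter fit.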

T1 sequence (P01116 1-188 isoform P01116-2 G12C): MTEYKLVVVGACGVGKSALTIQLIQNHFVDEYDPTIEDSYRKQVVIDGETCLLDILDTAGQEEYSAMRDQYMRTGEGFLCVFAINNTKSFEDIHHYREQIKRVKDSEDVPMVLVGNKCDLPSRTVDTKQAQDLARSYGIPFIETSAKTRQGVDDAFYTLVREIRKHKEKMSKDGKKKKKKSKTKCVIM

SMILES | IC50 [1] [nM] | IC50 (KRAS G12C) [nM]
C=CC(=O)N1CCN2C(=O)c3c(N4C[C@@H](N(C)C)CC4(C)C)nc(-c4ccccc4)c(Cl)c3OC[C@H]2C1 (single isomer, unassigned) [Z655-1] | 113 | 406
C=CC(=O)N1CCN2C(=O)c3c(N4C[C@H](N(C)CCOC)CC4(C)C)nc(-c4ccccc4F)c(Cl)c3OC[C@H]2C1 (single isomer, unassigned) [Z406-1] | 10 | 31
C=CC(=O)N1CCN2C(=O)c3c(N4C[C@H](N(C)CCO)CC4(C)C)nc(-c4ccccc4F)c(Cl)c3OC[C@H]2C1 (single isomer, unassigned) [Z658-2] | 31 | 142
C=CC(=O)N1CCN2C(=O)c3c(N4C[C@H](N5CC(C#N)C5)CC4(C)C)nc(-c4ccccc4F)c(Cl)c3OC[C@H]2C1 (single isomer, unassigned) [Z637-1] | 549 | 343
C=CC(=O)N1CCN2C(=O)c3c(N4C[C@@H](N5CC(F)(F)C5)CC4(C)C)nc(-c4ccccc4F)c(Cl)c3OC[C@H]2C1 (single isomer, unassigned) [Z525-2] | 14 | 38.5
C=CC(=O)N1CCN2C(=O)c3c(N4C[C@H](N5CCN(C)CC5)CC4(C)C)nc(-c4c(O)cccc4F)c(Cl)c3OC[C@H]2C1 (single isomer, unassigned) [Z469-2] | 4 | 18
C=CC(=O)N1CCN2C(=O)c3c(N4CC(N5CCOCC5)CC4(C)C)nc(-c4ccccc4F)c(Cl)c3OC[C@H]2C1 (single isomer, unassigned) [Z468-1] | 16 | 35
C=CC(=O)N1CCN2C(=O)c3c(N4C[C@H](N5CC(F)C5)CC4(C)C)nc(-c4ccccc4F)c(F)c3OC[C@H]2C1 [Z654-2, (R)-8-acryloyl-4-fluoro-1-((R)-4-(3-fluoroazetidin-1-yl)-2,2-dimethylpyrrolidin-1-yl)-3-(2-fluorophenyl)-6,6a,7,8,9,10-hexahydro-12H-pyrazino[2,1-c]pyrido[3,4-f][1,4]oxazepin-12-one] | 50.2 | 168
C=CC(=O)N1CCN2C(=O)c3c(N4C[C@@H](N5CCN(C)CC5)C[C@@H]4C)nc(-c4ccccc4F)c(Cl)c3OC[C@H]2C1 [Z470-2] | 4 | 24.7
C=CC(=O)N1CCN2C(=O)c3c(N4CC(O)CC4(C)C)nc(-c4ccccc4Cl)c(F)c3OC[C@H]2C1 (stereo partly drawn) [Z414-1, (6aR)-8-acryloyl-3-(2-chlorophenyl)-4-fluoro-1-(4-hydroxy-2,2-dimethylpyrrolidin-1-yl)-6,6a,7,8,9,10-hexahydro-12H-pyrazino[2,1-c]pyrido[3,4-f][1,4]oxazepin-12-one] | 126 | 86.6
C=CC(=O)N1CCN2C(=O)c3c(N4C[C@@H](N(C)CC(F)F)CC4(C)C)nc(-c4ccccc4F)c(Cl)c3OC[C@H]2C1 (single isomer, unassigned) [Z659-1] | 16 | 77.2
C=CC(=O)N1CCN2C(=O)c3c(N4C[C@@H](N5CCN(C)CC5)CC4(C)C)nc(-c4ccccc4F)c(F)c3OC[C@H]2C1 (single isomer, unassigned) [Z474-1] | 13 | 89
C=CC(=O)N1CCN2C(=O)c3c(N4C[C@H](N(C)C)CC4(C)C)nc(-c4cccc(C)c4F)c(Cl)c3OC[C@H]2C1 (single isomer, unassigned) [Z472-2] | 53 | 60
C=CC(=O)N1CCN2C(=O)c3c(N4CC(N(C)C)CC4(C)C)nc(-c4ccccc4F)c(Cl)c3OC[C@H]2C1 (single isomer, unassigned) [Z453-2] | 45.2 | 120
C=CC(=O)N1CCN2C(=O)c3c(N4C[C@H](N(C)C)CC4(C)C)nc(-c4c(F)ccc(F)c4O)c(Cl)c3OC[C@H]2C1 (single isomer, unassigned) [Z475-2] | 15 | 79.3
C=CC(=O)N1CCN2C(=O)c3c(N4CC[C@H](N(C)C)C4(C)C)nc(-c4ccccc4F)c(Cl)c3OC[C@H]2C1 [Z502-2, (6aR)-8-acryloyl-4-chloro-1-(3-(dimethylamino)-2,2-dimethylpyrrolidin-1-yl)-3-(2-fluorophenyl)-6,6a,7,8,9,10-hexahydro-12H-pyrazino[2,1-c]pyrido[3,4-f][1,4]oxazepin-12(6aH)-one] | 24.1 | 160
C=CC(=O)N1CCN2C(=O)c3c(N4C[C@@H](N5CCN(C)CC5)CC4(C)C)nc(-c4ccccc4F)c(Cl)c3OC[C@H]2C1 (single isomer, unassigned) [Z454-1] | 3.5 | 9.3

Second part, the molecule after the results:

IC50 [1] [nM] | IC50 (KRAS G12C) [nM] | SMILES
12 | 167 | C=CC(=O)N1CCN2C(=O)c3c(N4CCOC(C)(C)C4)nc(-c4c(O)cccc4F)c(Cl)c3OC[C@H]2C1 [Z37, (6aR)-8-acryloyl-4-chloro-1-(2,2-dimethylmorpholino)-3-(2-fluoro-6-hydroxyphenyl)-6,6a,7,8,9,10-hexahydro-12H-pyrazino[2,1-c]pyrido[3,4-f][1,4]oxazepin-12-one]
22.8 | 147 | C=CC(=O)N1CCN2C(=O)c3c(N4CCN(C)C[C@@H]4C)nc(-c4c(F)cccc4C(F)F)c(Cl)c3OC[C@H]2C1 [Z456, (6aR)-8-acryloyl-4-chloro-3-(2-(difluoromethyl)-6-fluorophenyl)-1-((S)-2,4-dimethylpiperazin-1-yl)-6,6a,7,8,9,10-hexahydro-12H-pyrazino[2,1-c]pyrido[3,4-f][1,4]oxazepin-12-one]
363 | 3000 | C=CC(=O)N1CCN2C(=O)c3c(N4CCN(C)C[C@@H]4C)nc(-c4c(F)cccc4OC)c(F)c3OC[C@H]2C1 [Z451, (6aR)-8-acryloyl-1-((S)-2,4-dimethylpiperazin-1-yl)-4-fluoro-3-(2-fluoro-6-methoxyphenyl)-6,6 a,7,8,9,10-hexahydro-12H-pyrazino[2,1-c]pyrido[3,4-f][1,4]oxazepin-12 (6 aH)-one]
112 | 125 | C=CC(=O)N1CCN2C(=O)c3c(N4C[C@H](N(C)CC(F)(F)F)CC4(C)C)nc(-c4ccccc4F)c(Cl)c3OC[C@H]2C1 (single isomer, unassigned) [Z493]
2.2 | 18.3 | C=CC(=O)N1CCN2C(=O)c3c(N4CCC(OC)C4(C)C)nc(-c4c(N)cccc4F)c(Cl)c3OC[C@H]2C1 (stereo partly drawn) [Z506, (6aR)-8-acryloyl-3-(2-amino-6-fluorophenyl)-4-chloro-1-(3-methoxy-2,2-dimethylpyrrolidin-1-yl)-6,6a,7,8,9,10-hexahydro-12H-pyrazino[2,1-c]pyrido[3,4-f][1,4]oxazepin-12-one]
4.7 | 19.8 | C=CC(=O)N1CCN2C(=O)c3c(N4CC(N5CCN(C)CC5)CC4(C)C)nc(-c4ccccc4F)c(Cl)c3OC[C@H]2C1 (stereo partly drawn) [Z454, (6aR)-8-acryloyl-4-chloro-1-(2,2-dimethyl-4-(4-methylpiperazin-1-yl)pyrrolidin-1-yl)-3-(2-fluorophenyl)-6,6a,7,8,9,10-hexahydro-12H-pyrazino[2,1-c]pyrido[3,4-f][1,4]oxazepin-12-one]
179 | 1930 | C=CC(=O)N1CCN2C(=O)c3c(N4C[C@@H](C)N(C)C[C@@H]4C)nc(-c4ccccc4F)c(Cl)c3OC[C@H]2C1 [Z464]
53 | 298 | C=CC(=O)N1CCN2C(=O)c3c(N4CCN(C)[C@@H](C)[C@@H]4C)nc(-c4ccccc4F)c(Cl)c3OC[C@H]2C1 [Z653, (R)-8-acryloyl-4-chloro-3-(2-fluorophenyl)-1-((2S,3S)-2,3,4-trimethylpiperazin-1-yl)-6,6a,7,8,9,10-hexahydro-12H-pyrazino[2,1-c]pyrido[3,4-f][1,4]oxazepin-12 (6aH)-one]
71 | 85 | C=CC(=O)N1CCN2C(=O)c3c(N4CCCC45CC5)nc(-c4c(O)cccc4F)c(Cl)c3OC[C@H]2C1 [Z56, (6aR)-8-acryloyl-4-chloro-3-(2-fluoro-6-hydroxyphenyl)-1-(4-azaspiro[2.4]heptan-4-yl)-6,6a,7,8,9,10-hexahydro-12H-pyrazino[2,1-c]pyrido[3,4-f][1,4]oxazepin-12-one]
7 | 142 | C=CC(=O)N1CCN2C(=O)c3c(N4CCN(C)C[C@@H]4C)nc(-c4c(O)cccc4F)c(Cl)c3OC[C@H]2C1 [Z51, (6aR)-8-acryloyl-4-chloro-1-((S)-2,4-dimethylpiperazin-1-yl)-3-(2-fluoro-6-hydroxyphenyl)-6,6a,7,8,9,10-hexahydro-12H-pyrazino[2,1-c]pyrido[3,4-f][1,4]oxazepin-12-one]
7 | 176 | C=CC(=O)N1CCN2C(=O)c3c(N4CCN(C)C[C@@H]4C)nc(-c4c(N)cccc4F)c(Cl)c3OC[C@H]2C1 [Z503, (6aR)-8-acryloyl-3-(2-amino-6-fluorophenyl)-4-chloro-1-((S)-2,4-dimethylpiperazin-1-yl)-6,6a,7,8,9,10-hexahydro-12H-pyrazino[2,1-c]pyrido[3,4-f][1,4]oxazepin-12-one]
24.5 | 44 | C=CC(=O)N1CCN2C(=O)c3c(N4CC(N5CCC(F)(F)C5)CC4(C)C)nc(-c4ccccc4F)c(Cl)c3OC[C@H]2C1 (stereo partly drawn) [Z532, (6aR)-8-acryloyl-4-chloro-1-(3,3-difluoro-5′,5′-dimethyl-[1,3′-bipyrrolidin]-1′-yl)-3-(2-fluorophenyl)-6,6a,7,8,9,10-hexahydro-12H-pyrazino[2,1-c]pyrido[3,4-f][1,4]oxazepin-12-one]
43 | 139 | C=CC(=O)N1CCN2C(=O)c3c(N4CCN(C)C[C@@H]4C)nc(-c4c(F)cccc4Cl)c(Cl)c3OC[C@H]2C1 [Z547, (6aR)-8-acryloyl-4-chloro-3-(2-chloro-6-fluorophenyl)-1-((S)-2,4-dimethylpiperazin-1-yl)-6,6a,7,8,9,10-hexahydro-12H-pyrazino[2,1-c]pyrido[3,4-f][1,4]oxazepin-12-one]
